# Data reported in PubChem BioAssay (NCI).
#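 Tested at 5 concentrations; 48 h exposure; 96-well plates; endpoints linearly interpolated, else capped at highest concentration. Here, GI50 denotes the concentration required for 50% inhibition of growth. TGI: concentration producing complete growth inhibition.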
# Assays:
# Experiment in all cases: NCI anticancer screen, dose series, 48 h
# 786-0 renal = tested on: 786-0 renal
# A498 renal = tested on: A498 renal
# A549 NSCLC = tested on: A549 NSCLC
# ACHN renal = tested on: ACHN renal
# BT-549 breast = tested on: BT-549 breast
# CAKI-1 renal = tested on: CAKI-1 renal
# CCRF-CEM leukemia = tested on: CCRF-CEM leukemia
# COLO 205 colon = tested on: COLO 205 colon
# DU-145 prostate = tested on: DU-145 prostate
# EKVX NSCLC = tested on: EKVX NSCLC
# HCC-2998 colon = tested on: HCC-2998 colon
# HCT-116 colon = tested on: HCT-116 colon
# HCT-15 colon = tested on: HCT-15 colon
# HL-60(TB) leukemia = tested on: HL-60(TB) leukemia
# HOP-62 NSCLC = tested on: HOP-62 NSCLC
# HOP-92 NSCLC = tested on: HOP-92 NSCLC
# HS 578T breast = tested on: HS 578T breast
# HT29 colon = tested on: HT29 colon
# IGROV1 ovarian = tested on: IGROV1 ovarian
# K-562 leukemia = tested on: K-562 leukemia
# KM12 colon = tested on: KM12 colon
# LOX IMVI melanoma = tested on: LOX IMVI melanoma
# M14 melanoma = tested on: M14 melanoma
# MALME-3M melanoma = tested on: MALME-3M melanoma
# MCF7 breast = tested on: MCF7 breast
# MDA-MB-231 breast = tested on: MDA-MB-231 breast
# MDA-MB-435 = tested on: MDA-MB-435
# MOLT-4 leukemia = tested on: MOLT-4 leukemia
# NCI-H226 lung = tested on: NCI-H226 lung
# NCI-H23 lung = tested on: NCI-H23 lung
# NCI-H460 lung = tested on: NCI-H460 lung
# NCI-H522 lung = tested on: NCI-H522 lung
# NCI/ADR-RES ovarian = tested on: NCI/ADR-RES ovarian
# OVCAR-3 ovarian = tested on: OVCAR-3 ovarian
# OVCAR-4 ovarian = tested on: OVCAR-4 ovarian
# OVCAR-5 ovarian = tested on: OVCAR-5 ovarian
# OVCAR-8 ovarian = tested on: OVCAR-8 ovarian
# PC-3 prostate = tested on: PC-3 prostate
# RPMI-8226 leukemia = tested on: RPMI-8226 leukemia
# RXF 393 renal = tested on: RXF 393 renal
# SF-268 CNS = tested on: SF-268 CNS
# SF-295 CNS = tested on: SF-295 CNS
# SF-539 CNS = tested on: SF-539 CNS
# SK-MEL-2 melanoma = tested on: SK-MEL-2 melanoma
# SK-MEL-28 melanoma = tested on: SK-MEL-28 melanoma
# SK-MEL-5 melanoma = tested on: SK-MEL-5 melanoma
# SK-OV-3 ovarian = tested on: SK-OV-3 ovarian
# SN12C renal = tested on: SN12C renal
# SNB-19 CNS = tested on: SNB-19 CNS
# SNB-75 CNS = tested on: SNB-75 CNS
# SR leukemia = tested on: SR leukemia
# SW-620 colon = tested on: SW-620 colon
# T-47D breast = tested on: T-47D breast
# TK-10 renal = tested on: TK-10 renal
# U251 CNS = tested on: U251 CNS
# UACC-257 melanoma = tested on: UACC-257 melanoma
# UACC-62 melanoma = tested on: UACC-62 melanoma
# UO-31 renal = tested on: UO-31 renal
smiles,measurement,setting,value
COc1cccc2[nH]c3c4c(c5c(c3c12)C(=O)N(CN1CCN(C)CC1)C5=O)CCC4,GI50,786-0 renal,13.3 µM
same,TGI,786-0 renal,31.8 µM
same,GI50,A498 renal,2.73 µM
same,TGI,A498 renal,> 100 µM
same,GI50,A549 NSCLC,8.49 µM
same,TGI,A549 NSCLC,25.6 µM
same,GI50,ACHN renal,5.81 µM
same,TGI,ACHN renal,36.4 µM
same,GI50,BT-549 breast,19 µM
same,TGI,BT-549 breast,99.1 µM
same,GI50,CAKI-1 renal,4.34 µM
same,TGI,CAKI-1 renal,38.8 µM
same,GI50,CCRF-CEM leukemia,5.55 µM
same,TGI,CCRF-CEM leukemia,33.3 µM
same,GI50,COLO 205 colon,11.4 µM
same,TGI,COLO 205 colon,35.6 µM
same,GI50,DU-145 prostate,9.22 µM
same,TGI,DU-145 prostate,21.6 µM
same,GI50,EKVX NSCLC,14.1 µM
same,TGI,EKVX NSCLC,83.3 µM
same,GI50,HCC-2998 colon,15.6 µM
same,TGI,HCC-2998 colon,> 76 µM
same,GI50,HCT-116 colon,13.2 µM
same,TGI,HCT-116 colon,45.7 µM
same,GI50,HCT-15 colon,7.33 µM
same,TGI,HCT-15 colon,25.9 µM
same,GI50,HL-60(TB) leukemia,19.6 µM
same,TGI,HL-60(TB) leukemia,> 75.1 µM
same,GI50,HOP-62 NSCLC,14.5 µM
same,TGI,HOP-62 NSCLC,39.1 µM
same,GI50,HOP-92 NSCLC,15.1 µM
same,TGI,HOP-92 NSCLC,44.9 µM
same,GI50,HS 578T breast,18.2 µM
same,TGI,HS 578T breast,> 88.3 µM
same,GI50,HT29 colon,8.99 µM
same,TGI,HT29 colon,29.8 µM
same,GI50,IGROV1 ovarian,4.79 µM
same,TGI,IGROV1 ovarian,> 46.1 µM
same,GI50,K-562 leukemia,16.3 µM
same,TGI,K-562 leukemia,> 67.8 µM
same,GI50,KM12 colon,12.3 µM
same,TGI,KM12 colon,49.7 µM
same,GI50,LOX IMVI melanoma,11.8 µM
same,TGI,LOX IMVI melanoma,40.7 µM
same,GI50,M14 melanoma,9.91 µM
same,TGI,M14 melanoma,> 80.4 µM
same,GI50,MALME-3M melanoma,6.43 µM
same,TGI,MALME-3M melanoma,63.2 µM
same,GI50,MCF7 breast,9.27 µM
same,TGI,MCF7 breast,39.7 µM
same,GI50,MDA-MB-231 breast,15 µM
same,TGI,MDA-MB-231 breast,31.3 µM
same,GI50,MDA-MB-435,7.37 µM
same,TGI,MDA-MB-435,30.7 µM
same,GI50,MOLT-4 leukemia,5.9 µM
same,TGI,MOLT-4 leukemia,42.3 µM
same,GI50,NCI-H226 lung,9.46 µM
same,TGI,NCI-H226 lung,> 90.9 µM
same,GI50,NCI-H23 lung,15 µM
same,TGI,NCI-H23 lung,> 72.5 µM
same,GI50,NCI-H460 lung,6.35 µM
same,TGI,NCI-H460 lung,25.8 µM
same,GI50,NCI-H522 lung,8.95 µM
same,TGI,NCI-H522 lung,> 56.9 µM
same,GI50,NCI/ADR-RES ovarian,12.2 µM
same,TGI,NCI/ADR-RES ovarian,37.5 µM
same,GI50,OVCAR-3 ovarian,13.7 µM
same,TGI,OVCAR-3 ovarian,34.2 µM
same,GI50,OVCAR-4 ovarian,8.03 µM
same,TGI,OVCAR-4 ovarian,26.9 µM
same,GI50,OVCAR-5 ovarian,14.5 µM
same,TGI,OVCAR-5 ovarian,44.6 µM
same,GI50,OVCAR-8 ovarian,8.6 µM
same,TGI,OVCAR-8 ovarian,26.5 µM
same,GI50,PC-3 prostate,6.58 µM
same,TGI,PC-3 prostate,> 46.7 µM
same,GI50,RPMI-8226 leukemia,4.6 µM
same,TGI,RPMI-8226 leukemia,23.8 µM
same,GI50,RXF 393 renal,3.45 µM
same,TGI,RXF 393 renal,13.6 µM
same,GI50,SF-268 CNS,13.5 µM
same,TGI,SF-268 CNS,> 52.3 µM
same,GI50,SF-295 CNS,10.1 µM
same,TGI,SF-295 CNS,25.6 µM
same,GI50,SF-539 CNS,11.3 µM
same,TGI,SF-539 CNS,26 µM
same,GI50,SK-MEL-2 melanoma,22.7 µM
same,TGI,SK-MEL-2 melanoma,> 100 µM
same,GI50,SK-MEL-28 melanoma,10.8 µM
same,TGI,SK-MEL-28 melanoma,29.8 µM
same,GI50,SK-MEL-5 melanoma,8.26 µM
same,TGI,SK-MEL-5 melanoma,> 100 µM
same,GI50,SK-OV-3 ovarian,11.7 µM
same,TGI,SK-OV-3 ovarian,29.8 µM
same,GI50,SN12C renal,11.2 µM
same,TGI,SN12C renal,33.9 µM
same,GI50,SNB-19 CNS,13.3 µM
same,TGI,SNB-19 CNS,34.6 µM
same,GI50,SNB-75 CNS,9.2 µM
same,TGI,SNB-75 CNS,40.5 µM
same,GI50,SR leukemia,2.11 µM
same,TGI,SR leukemia,11.1 µM
same,GI50,SW-620 colon,13.6 µM
same,TGI,SW-620 colon,38 µM
same,GI50,T-47D breast,4.62 µM
same,TGI,T-47D breast,> 73.9 µM
same,GI50,TK-10 renal,6.85 µM
same,TGI,TK-10 renal,28.3 µM
same,GI50,U251 CNS,6.3 µM
same,TGI,U251 CNS,21.8 µM
same,GI50,UACC-257 melanoma,14.8 µM
same,TGI,UACC-257 melanoma,45.1 µM
same,GI50,UACC-62 melanoma,9.9 µM
same,TGI,UACC-62 melanoma,30.9 µM
same,GI50,UO-31 renal,2.76 µM
same,TGI,UO-31 renal,> 23.8 µM
